Converted amounts (≈) assume the structure as drawn.
What was measured:
[1] = system: gastric acid secretion; experiment: Inhibition of Gastric Acid Secretion (Pylorous-Ligated Rat), Shay rat procedure; type: in vivo, rats (male, CFE strain); conditions: 100 mg./kg. intraduodenal, read-out: % Inhibition of Control Gastric Acid Secretion
Source text: The novel compounds of the present invention are also effective inhibitors of gastric acid secretion and of ulcer development in experimental animals, and thus are potentially valuable as agents for the control of gastric acid secretion and of gastric erosion and as anti-ulcer agents. Gastric acid secretion inhibitory action is usually measured by the Shay rat procedure ^(1,2) with some modifications as follows. 6 1. Shay et al., Gastroenterology, 5, 43 (1945). 6 2. Shay et al., Gastroenterology, 26, 906 (1954).
The rats (male, CFE strain) were starved for 48 hours (water was given ad libitum) to permit evacuation of stomach contents. On the morning of the experiment, under ether anesthesia, the abdominal region was shaved and a midline incision (1-1 1/2 inch) was made with a scalpel. With the help of a closed curved hemostat the duodenum was picked up. Upon getting the duodenum into view fingers were used to pull the stomach through the opening, the stomach was then gently manipulated with fingers to rid stomach of air and residual matter which were pushed through the pylorus. Two 5-inch sutures were drawn under the pyloric-duodenal puncture. A ligature, at the juncture, was formed with one of the threads. The second ligature was also formed but not tightened.
The test compound or the vehicle, usually 1 ml./100 g. body weight, were injected into the duodenum as close as possible to the first ligature. After injection the second ligature was tightened below the injection site to minimize leakage. The stomach was placed back through the opening into the abdominal cavity, the area of incision was washed with saline and the incision was closed with autoclips. (Ocasionally instead of an intraduodenal injection, animals were dosed by the oral or subcutaneous route. In the latter case, dosing was done thirty to sixty minutes before the operation).
The abdominal cavity was exposed by cutting with scissors and the esophagus close to the stomach was clamped off with a hemostat, the stomach was removed by cutting above the hemostat (the esophagus was cut) and between the two sutures. Extraneous tissue was removed, the stomach washed with saline and blotted on gauze. A slit was carefully made in the stomach which was held over a funnel and the contents were collected in a centrifuge tube. The stomach was further cut along the outside edge and turned inside out. Two ml. of water were used to wash the stomach contents into the respective centrifuge tube. The combined stomach contents and wash were then centrifuged out for 10 minutes in the International Size 2 Centrifuge (setting at 30). The supernatant was collected, volume measured and recorded, 2 drops of phenolphthalein indicator (1% in 95% ethanol) were added and the solution was titrated with 0.02N NaOH (or with 0.04N NaOH when large volumes of stomach contents were encountered) to pH 8.4 (because of usual coloring of the stomach contents, phenolphthalein was only used to permit visual indication that the end point was near) and the amount of acid present was calculated.
Compounds inducing inhibition of gastric acid secretion of 20% or more were considered active. In a representative operation, and merely by way of illustration, the results obtained with this assay with typical compounds of the present invention are given in Table IIIA.

[2] = system: dl-PGE1-induced contraction of gerbil colon; experiment: Inhibition of dl-PGE1-Induced Contraction of Gerbil Colon (prostaglandin antagonist action); type: cell-based, gerbils (Meriones unguiculatus); conditions: for IC50: Meriones unguiculatus, 1 min, sub-maximal challenge, 20 ng./ml. dl-PGE1, 50% inhibition of maximum response, read-out: ID50 vs. 20 ng. of PGE1/ml.
Procedure: The compounds of this invention are also useful as antagonists of prostaglandin action and accordingly they are potentially useful as anti-inflammatory agents, and as agents for the treatment of periodontal diseases and diarrhea. Testing for prostaglandin antagonist action is carried out in the following manner. Sections of ascending colon, approximately 20 mm. long, from mature male gerbils (Meriones unguiculatus) weighing 70-80 g. were mounted in De Jalon's solution (154 mM NaCl; 5.95 mM NAHCO3; […], 5.64 mM KC and .27 mM CaCl2 in 20 ml. tissue baths) (L and K Glass Co., Lynnhurst, N.J.). The medium was continually gassed with a mixture of 95% 02 -5% CO2 and maintained at 37° C. The tissues were suspended via silk suture threads between a glass hook at the base and a model FT .03C force displacement transducer (Grass Instruments, Quincy, Massachusetts). Contractions were recorded on a Poly-Viso ® polygraph (Sanborn Co., Cambridge, Massachusetts). After mounting, tissues were allowed to stabilize 15-20 minutes during which time adjustments were made to establish and maintain a 0.5 g. resting tension on the muscle. Thereafter, test cycles of 3-5 minutes were begun and consisted of a 1 minute exposure to the potential antagonist, if called for, followed by a 1 minute exposure to the prostaglandin agonist, a 15-30 sec. washout and a recovery period of 2-2.5 minutes. […] During the washout period, the tissue was rinsed with a measured amount equalling 8 volumes of medium. Muscle relaxation was virtually complete by the end of the washout period. During preliminary tests it was noted that a final concentration of 200 ng./ml. of a racemic mixture of synthetic prostaglandin-E1 (dl-PGE1) produced maximal muscle contraction. Following stabilization, muscles were exposed 2 to 3 times to this concentration of dl-PGE1 until a consistent response was recorded. Once maximal responses were established, test cycles with potential antagonists were commenced and were followed alternately with prostaglandin-only test cycle. […] The contraction of the muscle induced by 200 ng./ml. dl-PGE1 following exposure to a given concentration of the potential antagonist was always compared to the response of the tissue to that level of dl PGE1 in the immediately preceding cycle. Using a series of potential antagonist concentrations, an approximate ID50 (concentration at which 50% inhibition was observed) was established. The compounds were also tested against a sub-maximal prostaglandin challenge (20 ng./ml. dl-PGE1) in which case activity is reported in terms of a 50% inhibition of maximum response.

[3] = system: diastolic blood pressure; experiment: Prostaglandin-like hypotensive activity in anesthetized rats (minimal dose for about 10 mm. decrease in diastolic blood pressure); type: in vivo, Male Wistar strain rats; conditions: Rattus norvegicus; intravenous; decrease of about 10 mm. in diastolic blood pressure
Procedure: This procedure is a modification of the technique described by Pike et al., Prostaglandins, Nobel Symposium 2, Stockholm, June, 1966; p, 165.
Male Wistar strain rats (Royal Hart Farms) averaging approximately 250 grams in weight were fastened to rat boards in a supine position by means of canvas vests and limb ties. The femoral area was infiltrated subcutaneously with lidocaine and the iliac artery and vein exposed and cannulated. Arterial blood pressure (systolic/diastolic) was recorded using a Statham P23 Db pressure transducer-Offner dynograph system. To obtain a stable blood pressure, the animals were anesthetized before use with pentobarbital, 30 mg./kg. of body weight intravenously, and also were given hexamethonium bitartrate, 2 mg./kg. of body weight intravenously. The test compounds were prepared by ultrasonic dispersion in a saline-Tween 80 ® vehicle. A constant intravenous dose volume of 0.5 ml. was administered and test doses ranged from 0.1 to 10.0 mg./kg. of body weight. Increasing or decreasing doses were selected depending on the dose response obtained. In Table I below are set forth the minimal doses required to produce a decrease of about 10 mm. in diastolic blood pressure for typical compounds of the present invention.

[4] = system: Mycobacterium smegmatis ATCC 606; experiment: agar-dilution streak-plate antimicrobial assay; type: cell-based; conditions: Mycolicibacterium smegmatis, ATCC606, read-out: Minimal inhibitory conc. (6)
Procedure: The novel compounds of the present invention are also useful as antimicrobial agents. […] In this assay, the compounds to be tested are made up to contain 2.5 mg. of test compound per milliliter of solution. Observing sterile techniques, two-fold serial dilution are made of each test solution. One milliliter of each of the original solutions and of each of the serial dilutions is then added to 9 ml. of warm sterile nutrient agar capable of supporting growth of the bacterial test cultures. A second set of agar dilutions is prepared identical to the first except that the nutrient agar is designed to support the growth of the fungal test cultures. […] The test bacteria and yeast-like fungi are prepared for use by growing in broth overnight. The spores of the filamentous fungi are harvested from mature agar slant cultures and are suspended in sterile physiological saline solution. A loopful of each of the resulting live suspensions is then, still employing sterile techniques, streaked upon the surfaces of each of the agar plates and the resulting streaked plates are then incubated. After an appropriate period of time, each of the streaks on each of the plates is inspected visually and the extent, if any, of bacterial or fungal growth is noted. The minimal inhibitory concentration (expressed in micrograms per milliliter) is defined as the concentration of test compound causing complete inhibition of growth of any particular organism. In a representative operation, and merely by way of illustration, the minimal inhibitory concentration of typical compounds of the present invention against a variety of test organisms as determined in the above-described assay are set forth in Tables II and III below: […]

SMILES | inhibition in vivo at 100 mg/kg [1] | other results
CCCCCC/C=C/[C@@H]1CCC(=NNc2cc(Cl)ccc2Cl)[C@H]1CCCCCCC(=O)O (relative stereo) [9-Oxo-13-trans-prostenoic acid 2,5-dichlorophenylhydrazone] | 30% | 
CCC/C=C/[C@@H]1CCCC(=O)[C@H]1CCCCCCC(=O)O (relative stereo) [9-oxo-18,19,20-trinor-10a-homo-13-trans-prostenoic acid] | 39% | IC50 [2]: 1 µg/mL (≈ 3.4 µM)
CC[S+]([O-])CCC/C=C/[C@@H]1CCC(=O)[C@H]1CCCCCCC(=O)O (relative stereo) [9-oxo-18-oxythia-13-trans-prostenoic acid] |  | minimal effective dose [3]: 2 to 8 mg/kg
CC(C)/C=C/[C@H]1CCC(=O)[C@@H]1CCCCCCC(=O)O (relative stereo) [15-methyl-9-oxo-17,18,19,20-tetranor-13-trans-prostenoic acid] |  | IC50 [2]: 25 to 30 µg/mL (≈ 89.2 to 107 µM)
CCCCCC/C=C/[C@@H]1CCC(=O)[C@H]1CCCCCCC(=O)OCCCC (relative stereo) [butyl 9-oxo-13-trans-prostenoic acid] | 46% | 
CCCCC[C@H](O)/C=C/[C@H]1[C@H](O)CC(=O)[C@@H]1CCCCCCC(=O)O (relative stereo) [dl-PGE1, prostaglandin-E1, reference compound] |  | final concentration that produced maximal muscle contraction ([2]; agonist alone, preliminary tests): 200 ng/mL
CCC/C=C/[C@@H]1CCC(=O)[C@H]1CCCCOCC(=O)OCC (relative stereo) [ethyl 9-oxo-3-oxa-18,19,20-trinor-13-trans-prostenoate] | 65% | 
CCCCCC/C=C/[C@@H]1CCC(=O)[C@H]1CCCCSCC(=O)OCC (relative stereo) [ethyl 9-oxo-3-thia-13-trans-prostenoate] | 39% | 
CCCCCC/C=C/[C@H]1CCC(=O)[C@@H]1CCCCC(=O)OCC (relative stereo) [ethyl 9-oxo-6,7-dinor-13-trans-prostenoate] |  | MIC [4]: 250 µg/mL (≈ 775 µM)
CCCCCC/C=C/[C@H]1CCCC(=O)[C@@H]1CCCCCCC(=O)OCC (relative stereo) [ethyl 9-oxo-10a-homo-13-trans-prostenoate] | 46% | minimal effective dose [3]: 2 mg/kg
CC/C=C\CC/C=C/[C@H]1CCC(=O)[C@@H]1CCCCCCC(=O)OCC (relative stereo) [ethyl 9-oxo-13-trans-17-cis-prostadienoate] |  | minimal effective dose [3]: 0.2 to 2 mg/kg
CCCCCC/C=C/[C@H]1CCC(=O)[C@@H]1CCCCCCC(=O)OCC (relative stereo) [ethyl 9-oxo-13-trans-prostenoate] | 28% | minimal effective dose [3]: 0.5 mg/kg
CCC/C=C/[C@H]1CCCC(=O)[C@@H]1CCCCCCC(=O)OCC (relative stereo) [ethyl 9-oxo-18,19,20-trinor-10a-homo-13-transprostenoate] | 37% | 
CCOC(=O)CCCCCC[C@H]1C(=O)CC[C@@H]1/C=C/CCCS(=O)(=O)CC (relative stereo) [ethyl 9-oxo-18-dioxythia-13-trans-prostenoate] | 34% | 
CCOC(=O)CCCCCC[C@H]1C(=O)CC[C@@H]1/C=C/CCCCCCI (relative stereo) [ethyl 20-iodo-9-oxo-13-trans-prostenoate] | 42% | MIC [4]: 62 µg/mL (≈ 130 µM)
CCCCCCC/C=C/[C@H]1CCC(=O)[C@@H]1CCCCCCC(=O)OCC (relative stereo) [ethyl 20-methyl-9-oxo-13-trans-prostenoate] | 36% | minimal effective dose [3]: 0.5 mg/kg
CCCCCCC=CC1CC(c2ccccc2)C(=O)C1CCCCCCC(=O)OCC (stereo not drawn) [Ethyl 9-oxo-10-phenyl-13-trans-prostenoate] | 24% | 
CCCCCCC=CC1CC(C#N)C(=O)C1CCCCCCC(=O)OCC (stereo not drawn) [Ethyl 10-cyano-9-oxo-13-trans-prostenoate] |  | IC50 [2]: 10 to 25 µg/mL (≈ 26.6 to 66.6 µM)
CCCCCCC=CC1CC(F)C(=O)C1CCCCCCC(=O)OCC (stereo not drawn) [Ethyl 10-fluoro-9-oxo-13-trans-prostenoate] | 25% | 
CCCCCCC=CC1CC(SC)C(=O)C1CCCCCCC(=O)OCC (stereo not drawn) [Ethyl 10-methylthio-9-oxo-13-trans-prostenoate] | 35% | 
CCCCCC/C=C/[C@H]1CCC(O)[C@@H]1CCCCCCC(=O)OCC (stereo partly drawn) [ethyl 9-hydroxy-13-trans-prostenoate, ethyl 9α- and 9β-hydroxy-13-trans-prostenoate] |  | MIC [4]: 25 µg/mL (≈ 70.9 µM)
CCCC=CC1CCC(=O)C1CCCCCC(F)C(=O)OCC (stereo not drawn) [ethyl 9-oxo-2-fluoro-18,19,20-trinor-13-trans-prostenoate] | 84% | 

— patent US4044043A, “Derivatives of 9-oxo-13-trans-prostenoic acid esters” (American Cyanamid Company, priority 1975, dated 1977)
